Earlier results on 1 compound are cited in patent US20080175908A1, “TABLET-IN-TABLET COMPOSITIONS” (Wyeth, priority 2007, published 2008).

The structures appear in SMILES notation.

The subject of data set [1] is uterine response. Particulars: preclinical models of uterine stimulation.
Data set [2] relates to ovariectomized rat model of osteopenia.
The test system of data set [3] is MCF-7 cell line (human breast cancer cell line).

`Cc1c(-c2ccc(O)cc2)n(Cc2ccc(OCCN3CCCCCC3)cc2)c2ccc(O)cc12` [bazedoxifene acetate, 1-[4-(2-azepan-1-yl-ethoxy)-benzyl]-2-(4-hydroxy-phenyl)-3-methyl-1H-indol-5-ol acetic acid]: the “stimulation of uterine response” value in data set [1] is “little or no stimulation of uterine response”. In addition, in data set [2], the “prevention of bone loss” value is reported as “estrogen agonist-like effect in preventing bone loss” and the reduction of cholesterol entry was “reducing cholesterol”. The estrogen antagonist behaviour entry in data set [3] is “behaves as an estrogen antagonist”.
